Data as given in ChEMBL document CHEMBL1201862, “PubChem BioAssay data set” (2004).
The source made the active and inactive calls.

Columns and labels:
[1] = target: Platelet-derived growth factor receptor alpha (Homo sapiens, UniProt P16234); assay: Navigating the Kinome. Panel member name: PDGFRA; type: functional
[2] = target: Mitogen-activated protein kinase 9 (Homo sapiens, UniProt P45984); type: functional;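 further: value from a kinome panel profiling assay, MAPK9 panel entry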
[3] = target: Mitogen-activated protein kinase 10 (Homo sapiens, UniProt P53779); assay: Navigating the Kinome. Panel member name: MAPK10; type: functional
[4] = target: Dual specificity tyrosine-phosphorylation-regulated kinase 1B (Homo sapiens, UniProt Q9Y463); assay: Navigating the Kinome. Panel member name: DYRK1B; type: functional
Activated CDC42 kinase 1 = Activated CDC42 kinase 1 (Homo sapiens, UniProt Q07912); assay: Navigating the Kinome. Panel member name: ACK1; type: functional
Cytochrome P450 1A2 = target: T1, Cytochrome P450 1A2 (Homo sapiens, UniProt P05177);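 further: PubChem cytochrome P450 panel assay, CYP1A2 panel member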
T1 sequence (P05177 whole entry): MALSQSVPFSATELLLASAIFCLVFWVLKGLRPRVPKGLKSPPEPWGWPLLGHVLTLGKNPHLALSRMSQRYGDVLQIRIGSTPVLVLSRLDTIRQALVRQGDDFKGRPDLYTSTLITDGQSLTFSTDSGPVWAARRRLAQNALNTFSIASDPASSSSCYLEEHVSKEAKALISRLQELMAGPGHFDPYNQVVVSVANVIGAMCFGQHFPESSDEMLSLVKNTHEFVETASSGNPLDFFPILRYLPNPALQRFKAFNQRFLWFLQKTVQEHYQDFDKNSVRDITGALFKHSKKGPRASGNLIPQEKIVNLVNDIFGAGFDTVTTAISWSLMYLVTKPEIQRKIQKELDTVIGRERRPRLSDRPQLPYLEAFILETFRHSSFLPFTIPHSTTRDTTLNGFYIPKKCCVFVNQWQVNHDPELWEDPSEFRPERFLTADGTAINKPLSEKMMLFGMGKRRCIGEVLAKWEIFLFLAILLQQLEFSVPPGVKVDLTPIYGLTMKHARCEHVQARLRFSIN

[5] = target: Glycogen synthase kinase-3 beta (Homo sapiens, UniProt P49841); type: functional;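 further: value comes from a broad kinome profiling panel, with GSK3B as the panel member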
Focal adhesion kinase 1 = Focal adhesion kinase 1 (Homo sapiens, UniProt Q05397); type: functional;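 further: measured as one member of a kinome panel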
Activin receptor type-1 = target: T2, Activin receptor type-1 (Homo sapiens, UniProt Q04771); assay: Navigating the Kinome. Panel member name: ACVR1; type: functional
T2 sequence (Q04771 whole entry): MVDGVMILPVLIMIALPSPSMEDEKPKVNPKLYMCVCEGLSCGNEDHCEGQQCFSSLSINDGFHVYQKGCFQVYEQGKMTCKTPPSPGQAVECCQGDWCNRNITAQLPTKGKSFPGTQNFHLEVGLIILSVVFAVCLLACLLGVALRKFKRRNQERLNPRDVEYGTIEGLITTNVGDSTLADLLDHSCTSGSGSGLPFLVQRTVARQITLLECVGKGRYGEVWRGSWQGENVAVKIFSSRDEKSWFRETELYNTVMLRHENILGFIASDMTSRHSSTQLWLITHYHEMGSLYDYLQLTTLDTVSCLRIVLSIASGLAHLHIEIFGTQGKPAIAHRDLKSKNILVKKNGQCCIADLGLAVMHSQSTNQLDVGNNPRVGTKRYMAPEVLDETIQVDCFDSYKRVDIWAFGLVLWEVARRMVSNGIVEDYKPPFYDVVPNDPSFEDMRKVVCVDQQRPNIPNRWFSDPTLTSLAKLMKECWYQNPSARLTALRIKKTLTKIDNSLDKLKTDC

[6] = target: Vascular endothelial growth factor receptor 1 (Homo sapiens, UniProt P17948); type: functional;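 further: measured within a kinome-wide profiling panel, FLT1 as the panel member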
[7] = target: cAMP-dependent protein kinase catalytic subunit PRKX (Homo sapiens, UniProt P51817); type: functional
[8] = target: Insulin-like growth factor 1 receptor (Homo sapiens, UniProt P08069); assay: Navigating the Kinome. Panel member name: IGF1R; type: functional
[9] = target: Mast/stem cell growth factor receptor Kit (Homo sapiens, UniProt P10721); type: functional;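 further: KIT entry within a kinase panel assay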
[10] = target: Cyclin-dependent kinase 8 (Homo sapiens, UniProt P49336); assay: Navigating the Kinome. Panel member name: CDK8; type: functional
[11] = target: Glycogen synthase kinase-3 alpha (Homo sapiens, UniProt P49840); type: functional;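 further: GSK3A result taken from a broad kinome-wide kinase panel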
[12] = target: Macrophage-stimulating protein receptor (Homo sapiens, UniProt Q04912); assay: Navigating the Kinome. Panel member name: MST1R; type: functional
Chain of Macrophage-stimulating protein receptor (Q04912 25-304 limits assumed): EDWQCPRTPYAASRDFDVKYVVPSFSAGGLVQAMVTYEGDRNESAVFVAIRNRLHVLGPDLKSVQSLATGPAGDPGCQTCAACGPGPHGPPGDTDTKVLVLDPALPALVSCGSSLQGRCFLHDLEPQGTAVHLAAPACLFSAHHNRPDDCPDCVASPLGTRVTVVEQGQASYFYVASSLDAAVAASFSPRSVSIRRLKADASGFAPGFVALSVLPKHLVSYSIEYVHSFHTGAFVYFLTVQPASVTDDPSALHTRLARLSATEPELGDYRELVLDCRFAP
Chain of Macrophage-stimulating protein receptor (Q04912 310-1400 limits assumed): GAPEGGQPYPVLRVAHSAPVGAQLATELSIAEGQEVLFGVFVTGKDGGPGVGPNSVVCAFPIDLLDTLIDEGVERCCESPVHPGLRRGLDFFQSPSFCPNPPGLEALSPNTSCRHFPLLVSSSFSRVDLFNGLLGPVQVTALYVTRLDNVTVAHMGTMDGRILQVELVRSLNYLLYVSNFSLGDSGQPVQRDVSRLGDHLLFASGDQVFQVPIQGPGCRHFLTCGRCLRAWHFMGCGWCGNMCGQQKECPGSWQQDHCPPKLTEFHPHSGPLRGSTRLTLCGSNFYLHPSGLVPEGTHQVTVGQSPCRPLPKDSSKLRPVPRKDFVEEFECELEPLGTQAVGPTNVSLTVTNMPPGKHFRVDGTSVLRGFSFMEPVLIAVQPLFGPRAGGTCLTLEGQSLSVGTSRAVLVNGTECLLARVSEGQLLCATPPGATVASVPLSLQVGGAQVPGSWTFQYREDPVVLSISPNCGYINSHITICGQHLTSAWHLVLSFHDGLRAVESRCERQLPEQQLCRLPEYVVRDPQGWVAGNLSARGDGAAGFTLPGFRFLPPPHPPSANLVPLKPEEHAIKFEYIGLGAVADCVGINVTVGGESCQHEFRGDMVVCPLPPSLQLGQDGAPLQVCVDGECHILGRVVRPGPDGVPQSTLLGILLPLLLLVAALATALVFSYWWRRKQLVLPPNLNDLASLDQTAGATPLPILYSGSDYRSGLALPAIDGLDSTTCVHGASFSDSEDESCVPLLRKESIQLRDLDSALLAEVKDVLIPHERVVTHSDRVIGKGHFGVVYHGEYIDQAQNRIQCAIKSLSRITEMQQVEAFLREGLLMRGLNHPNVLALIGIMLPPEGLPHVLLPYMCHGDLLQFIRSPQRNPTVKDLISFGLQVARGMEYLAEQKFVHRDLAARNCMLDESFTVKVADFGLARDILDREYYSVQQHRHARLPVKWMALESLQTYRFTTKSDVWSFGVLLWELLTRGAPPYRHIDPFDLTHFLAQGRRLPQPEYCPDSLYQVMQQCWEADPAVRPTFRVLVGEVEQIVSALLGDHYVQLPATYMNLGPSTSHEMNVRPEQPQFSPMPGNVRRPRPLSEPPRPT

Chain of Mast/stem cell growth factor receptor Kit (P10721 whole entry): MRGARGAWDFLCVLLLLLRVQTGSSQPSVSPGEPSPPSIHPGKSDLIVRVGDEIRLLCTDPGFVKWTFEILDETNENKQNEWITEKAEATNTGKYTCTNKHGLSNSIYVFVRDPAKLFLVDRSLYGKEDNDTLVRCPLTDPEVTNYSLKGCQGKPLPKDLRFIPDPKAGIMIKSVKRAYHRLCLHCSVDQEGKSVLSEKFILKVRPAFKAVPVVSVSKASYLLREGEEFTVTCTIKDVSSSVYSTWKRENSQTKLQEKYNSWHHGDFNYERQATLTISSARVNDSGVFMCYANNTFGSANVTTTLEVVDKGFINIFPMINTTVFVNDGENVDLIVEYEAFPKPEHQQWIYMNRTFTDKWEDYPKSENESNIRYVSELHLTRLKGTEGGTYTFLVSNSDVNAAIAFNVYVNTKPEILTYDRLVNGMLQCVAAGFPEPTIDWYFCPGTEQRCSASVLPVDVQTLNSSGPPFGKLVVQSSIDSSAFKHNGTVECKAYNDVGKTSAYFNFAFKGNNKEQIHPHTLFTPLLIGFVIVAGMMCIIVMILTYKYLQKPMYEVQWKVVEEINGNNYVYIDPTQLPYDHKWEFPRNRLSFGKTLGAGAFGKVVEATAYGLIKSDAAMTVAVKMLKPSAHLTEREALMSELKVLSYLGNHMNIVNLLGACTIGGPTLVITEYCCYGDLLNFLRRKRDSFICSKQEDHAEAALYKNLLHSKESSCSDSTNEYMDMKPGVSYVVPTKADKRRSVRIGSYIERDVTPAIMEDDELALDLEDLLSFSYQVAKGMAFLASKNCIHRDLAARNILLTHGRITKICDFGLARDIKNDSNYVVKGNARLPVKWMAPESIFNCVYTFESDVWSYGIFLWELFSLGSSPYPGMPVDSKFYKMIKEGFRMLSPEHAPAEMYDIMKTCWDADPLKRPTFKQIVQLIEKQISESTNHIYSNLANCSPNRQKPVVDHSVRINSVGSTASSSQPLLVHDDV
Chain of Glycogen synthase kinase-3 alpha (P49840 whole entry): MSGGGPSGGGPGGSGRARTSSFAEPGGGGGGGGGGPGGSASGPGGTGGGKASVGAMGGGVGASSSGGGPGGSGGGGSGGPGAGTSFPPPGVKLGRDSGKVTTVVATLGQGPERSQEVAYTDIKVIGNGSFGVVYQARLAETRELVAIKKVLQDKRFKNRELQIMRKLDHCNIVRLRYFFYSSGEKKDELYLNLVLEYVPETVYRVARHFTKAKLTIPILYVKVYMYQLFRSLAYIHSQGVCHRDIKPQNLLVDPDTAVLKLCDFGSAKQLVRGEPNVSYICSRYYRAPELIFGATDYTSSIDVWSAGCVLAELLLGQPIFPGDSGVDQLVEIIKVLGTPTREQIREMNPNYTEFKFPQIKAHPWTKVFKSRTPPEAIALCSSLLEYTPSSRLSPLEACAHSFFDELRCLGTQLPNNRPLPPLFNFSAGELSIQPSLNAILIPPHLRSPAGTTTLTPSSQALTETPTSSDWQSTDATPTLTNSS
Chain of Insulin-like growth factor 1 receptor (P08069 31-736 limits assumed): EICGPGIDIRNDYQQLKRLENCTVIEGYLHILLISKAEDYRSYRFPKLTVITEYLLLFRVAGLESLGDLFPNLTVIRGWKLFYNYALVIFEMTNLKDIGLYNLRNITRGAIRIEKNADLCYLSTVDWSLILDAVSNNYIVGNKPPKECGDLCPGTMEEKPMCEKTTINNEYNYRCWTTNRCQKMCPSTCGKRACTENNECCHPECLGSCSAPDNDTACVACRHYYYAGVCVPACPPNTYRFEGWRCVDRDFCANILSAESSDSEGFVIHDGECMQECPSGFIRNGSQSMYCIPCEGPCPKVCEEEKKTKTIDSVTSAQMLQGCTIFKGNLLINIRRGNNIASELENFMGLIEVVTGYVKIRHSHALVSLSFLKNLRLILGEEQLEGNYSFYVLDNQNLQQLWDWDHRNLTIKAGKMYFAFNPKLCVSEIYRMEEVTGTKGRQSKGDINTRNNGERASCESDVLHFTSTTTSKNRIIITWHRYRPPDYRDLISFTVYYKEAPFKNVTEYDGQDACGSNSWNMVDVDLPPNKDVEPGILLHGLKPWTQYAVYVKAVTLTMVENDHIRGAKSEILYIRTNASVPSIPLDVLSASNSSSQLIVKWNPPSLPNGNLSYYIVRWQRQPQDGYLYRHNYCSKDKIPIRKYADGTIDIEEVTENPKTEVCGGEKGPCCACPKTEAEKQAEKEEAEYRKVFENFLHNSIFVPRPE
Chain of Insulin-like growth factor 1 receptor (P08069 741-1367 limits assumed): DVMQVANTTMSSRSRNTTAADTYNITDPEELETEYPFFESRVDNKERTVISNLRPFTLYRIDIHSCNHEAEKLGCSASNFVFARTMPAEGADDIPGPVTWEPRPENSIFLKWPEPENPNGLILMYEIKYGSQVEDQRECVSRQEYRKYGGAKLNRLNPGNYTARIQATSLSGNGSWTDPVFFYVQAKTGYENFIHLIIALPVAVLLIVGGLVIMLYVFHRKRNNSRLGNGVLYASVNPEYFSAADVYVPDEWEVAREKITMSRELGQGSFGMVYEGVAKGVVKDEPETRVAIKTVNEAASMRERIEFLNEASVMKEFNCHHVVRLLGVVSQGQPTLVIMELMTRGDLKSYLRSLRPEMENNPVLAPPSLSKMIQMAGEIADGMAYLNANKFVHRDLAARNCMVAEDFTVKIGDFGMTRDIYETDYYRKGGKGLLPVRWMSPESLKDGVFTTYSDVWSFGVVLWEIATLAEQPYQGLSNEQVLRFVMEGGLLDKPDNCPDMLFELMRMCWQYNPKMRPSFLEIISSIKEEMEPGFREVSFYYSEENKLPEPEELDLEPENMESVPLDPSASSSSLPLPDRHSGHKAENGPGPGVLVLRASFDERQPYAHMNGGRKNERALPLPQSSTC
Chain of Cyclin-dependent kinase 8 (P49336 whole entry): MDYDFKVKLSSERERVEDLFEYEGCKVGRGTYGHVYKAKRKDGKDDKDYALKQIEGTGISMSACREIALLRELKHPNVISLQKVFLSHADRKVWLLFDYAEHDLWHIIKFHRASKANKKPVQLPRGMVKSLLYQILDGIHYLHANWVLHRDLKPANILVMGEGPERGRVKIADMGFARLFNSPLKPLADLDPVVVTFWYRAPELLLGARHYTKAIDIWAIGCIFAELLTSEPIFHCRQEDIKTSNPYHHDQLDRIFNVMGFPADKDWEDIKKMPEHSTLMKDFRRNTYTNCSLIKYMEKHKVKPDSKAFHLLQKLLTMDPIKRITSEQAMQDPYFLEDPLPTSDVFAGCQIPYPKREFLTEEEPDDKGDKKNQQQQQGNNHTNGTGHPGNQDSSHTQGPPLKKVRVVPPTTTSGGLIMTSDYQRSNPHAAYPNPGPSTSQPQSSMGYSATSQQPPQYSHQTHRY
Chain of Glycogen synthase kinase-3 beta (P49841 whole entry): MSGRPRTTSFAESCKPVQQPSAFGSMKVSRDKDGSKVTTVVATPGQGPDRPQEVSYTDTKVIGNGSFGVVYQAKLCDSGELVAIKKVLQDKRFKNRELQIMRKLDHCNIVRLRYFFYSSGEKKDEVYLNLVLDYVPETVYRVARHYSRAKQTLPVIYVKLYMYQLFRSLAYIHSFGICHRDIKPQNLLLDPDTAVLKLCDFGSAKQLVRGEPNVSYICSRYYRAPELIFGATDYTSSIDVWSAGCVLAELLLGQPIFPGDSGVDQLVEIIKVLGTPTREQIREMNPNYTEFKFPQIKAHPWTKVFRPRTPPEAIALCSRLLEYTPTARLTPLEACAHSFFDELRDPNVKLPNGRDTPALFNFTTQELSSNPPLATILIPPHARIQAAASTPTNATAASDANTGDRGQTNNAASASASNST

`NC(=O)c1ccc(-c2nc(-c3ccc4c(c3)OCO4)c(-c3ccccn3)[nH]2)cc1` [SB-431542] was tested, and the Ki [1] was > 2.51 µM (inactive), the Ki [2] was > 3.98 µM (inactive) and the Ki [3] was > 3.16 µM (inactive). For the same compound, the Ki [4] was > 2.51 µM (inactive), the Ki (Activated CDC42 kinase 1) was > 3.98 µM (inactive) and the AC50 (Cytochrome P450 1A2) was 15.8 µM (inconclusive). The Ki [5] was > 3.98 µM (inactive), the Ki (Focal adhesion kinase 1) was > 6.31 µM (inactive) and the Ki (Activin receptor type-1) was > 3.98 µM (inactive). For the same compound, the Ki [6] was > 3.98 µM (inactive), the Ki [7] was > 3.16 µM (inactive) and the Ki [8] was > 2.51 µM (inactive). For the same compound, the Ki [9] was > 6.31 µM (inactive), the Ki [10] was > 3.98 µM (inactive) and the Ki [11] was > 3.98 µM (inactive). The Ki [12] was > 3.98 µM (inactive).
